Test results: patent publication US6913767B1, “Compositions for microencapsulation of antigens for use as vaccines” (priority 1993, dated 2005)

Test: Stability (intact fraction) of QS21
Type: physicochemical
Details: same time (74 days), same conditions
Method: QS21 controls were also run. In RP-HPLC analysis, the rgp120 peak elutes before the QS21 peak and, therefore, this method provides simultaneous quantitation of QS21 and rgp120 released from the microspheres.
Microspheres containing QS21, or QS21 with MN rgp120, were incubated in physiological buffer at 37° C. to assess the time for release of the second burst.

With QS21 the “intact QS21 in solution” value was “less than 25%”.
